The test system of assay [1] is liverwort callus cells. In words: Reproduction of green cells: liverwort callus cultivation, fresh weight at 10th day. The class given is cell-based, liverwort (Harchantia polymorpha L.). The conditions noted are these: liverwort callus fresh weight at 10th day (240 hours); relative value, control area = 100; concentrations (ppm) as in Table 7. On the procedure: In case of a unicellular organism, an individual of this organism can be used itself as a green cell. […] When chlorella is used, a test substance acting as a plant-activating agent is added to an inorganic salt medium for chlorella (test area), and the number of cells (cells/ml) when cultivation is conducted for a certain period can be compared with the number of cells (cells/ml) in the non-added system cultivated under the same condition (control area), for calculation. Further, cells in the form of callus can also be used. As the callus, a liverwort (Harchantia polymorpha L.) callus may be exemplified. When a callus is used, the test substance acting as a plant-activating agent is added to e.g. a sterilized medium for calluses (test area), and the weight of callus when cultivation is conducted for a certain period can be compared with the weight of callus of the non-added system cultivated under the same condition (control area), for calculation. In any case, the concentration of the test substance in the test area is not limited but suitably from 0.1 to 1000 ppm in terms of effective components.
100 ml of the medium (MSK2 medium) for liverworts were placed into a 500-ml Erlenmeyer flask, and the flask was capped with a silicon cap having its ventilative property and placed into an autoclave (at a high temperature, under a high pressure, and a sterilized oven) to sterilize the medium (for 20 minutes). Herein, the substance acting as the plant-activating agent was added in a concentration shown in Table 7 into a culturing solution in the test area. After sterilization, the temperature of the medium was returned to a normal temperature. 2 ml of liverwort callus cells under a steady state, which had been sub-cultivated previously, were sucked up by a 2-ml Komagome pipette (measuring pipet) and incubated to the sterilized medium. These operations are conducted in a clean bench when sterilized condition is necessary. Cultivation is carried out in a shaking incubator rotating at 110 rpm at 23° C. under continuous illumination (with illuminance of 10 klx.) with carbon dioxide and humidity under natural conditions. Tenth day (after 240 hours) after starting the cultivation, the whole culturing solution in each area was filtrated under suction, and the fresh weight (raw weight) (g) of the callus cell was measured. This was made as the amount in reproduction of green cells, and the improved degree in reproduction of green cells was measured by the above-described formula.

Assay [2] has as its system tomato “Momotato”. In words: Tomato pot test, soil treatment: SPAD value, dry weight, leaf-area, ascorbic acid and nitrate ion in the blade part. Format: in vivo. The conditions noted are these: for Concentration of ascorbic acid in the blade part / Concentration of nitrate ion in the blade part / Dry weight of plant / Leaf-area: 3rd day after 7th treatment, relative to control area = 100; for SPAD value: soil treated 7 times weekly, about 50 ml per pot, in 3000-fold Otsuka OKF2, 3rd day after 7th treatment, control area 34.3. On the procedure:
(§1) The SPAD values in the test and control areas grown under the same conditions are measured by Minolta Chlorophyll Meter SPAD 502 (supplied by Minolta Co., Ltd.). This is an apparatus to measure the amount of chlorophyll of plants (leaves) without destruction. Raw leaves are inserted into this apparatus and irradiated with light (stroboscopic emission by a xenon lamp). The transmission light is passed through a filter having 670 nm of the maximum wavelength to be absorbed by chlorophyll and another filter having 750 nm of the non-specific absorption band of a polymer such as protein, the difference in light absorption amounts at both wavelengths is measured by an integrated circuit and converted digitally, and then the value is expressed. The value is indicated in terms of numerical values between zero to 80 (SPAD value). The SPAD value has a high correlation with the chlorophyll content per unit area of a leaf. The following regression formula is satisfied between the value (X) measured by SPAD 502 and the chlorophyll content (Y) (mg/100 cm^2) (Shokubutsu Eiyo Jikken Ho (translated as Method for testing nutrition of plants), 2nd press., pp. 366-367 issued on Apr. 20th, 1991 by Hakuyu Sha K. K.).
(§2) The improved degree of the SPAD value in the present invention is calculated as follows: Improved degree of the SPAD value=(SPAD value in test area)−(SPAD value in control area).
(§3) The measuring time of the SPAD is not limited but only necessitates that the area of a leaf of the plant reaches to an area (about 5 mm×5 mm or more) measurable by a SPAD meter after a treatment with the substance acting as the plant-activating agent. The measurement of the SPAD value is carried out at least 20 times on the same leaf position of a plant treated with the substance acting as the plant-activating agent and of another plant not treated with the substance acting as a plant-activating agent, and the average value thereof is used.
(§4) The increased amount in weight of a plant (b) is calculated from fresh weights or dry weights in the test area and control area in which plants have been grown under the same conditions, like in the above-mentioned [i]. […] The weight of a plant is measured as follows. Each and all plants treated with the substance acting as the plant-activating agent (test area) and not treated with the substance acting as the plant-activating agent (control area) are taken out of a cultivation apparatus (e.g. a pot), soil and contaminations adhering to roots are washed away by running water sufficiently, and respective weights are measured (fresh weight). Each of the plants is dried at 70° C. for 5 days and the weight thereof after the drying is measured (dry weight). Increased amounts in weight of plants are calculated respectively by the following manner. Herein, though any of the fresh weight and dry weight may be calculated, the dry weight is preferably calculated for directly reflecting the net weight of an anabolite (assimilate). Increased amount (%) in weight (fresh weight) of a plant=[(fresh weight in test area−fresh weight in control area)/(fresh weight in control area)]×100 Increased amount (%) in weight (dry weight) of a plant=[(dry weight in test area−dry weight in control area)/(dry weight in control area)]×100
(§5) The improved degree of leaf-area of a plant (c) is calculated from leaf-area of whole plants in the test area and control area in which plants have been grown in the same conditions, like in the above-mentioned [i]. The improved degree is preferably not less than 5%, more preferably not less than 7% and most preferably not less than 9%. In the present invention, the improved degree of leaf-area is measured using an automatic planimeter AAC-400 model (supplied by Hayashi Denko K. K.). This automatic planimeter is a device to detect, by a photo-electric element, the extent of blockage of scanning beam by a sample. According to this device, the minimum unit is 1 mm^2, the maximum display number can be shown up to 99999.99 cm^2. […]

For assay [3], the system named is spinach “Esper”. In words: Spinach pot test, soil treatment: SPAD value, dry weight, leaf-area, ascorbic acid and nitrate ion in the blade part. The class given is in vivo. The conditions noted are these: 3rd day after 5th treatment; for Concentration of ascorbic acid in the blade part / Concentration of nitrate ion in the blade part / Dry weight of plant / Leaf-area: relative to control area = 100; for SPAD value: soil treated 5 times weekly, about 150 ml per pot, in water, control area 43.1. On the procedure:
as §1, §2, §3, §4, §5

Take `O=C([O-])CCC(=O)[O-].[Na+].[Na+]` [Comparative product 5-2, Sodium succinate, reference compound]: in assay [1], the “Improved degree in reproduction of green cells” value (“Improved degree in reproduction” below) came to 91.
The same measure, in the same setting: the result for `O=C([O-])CN(CCN(CC(=O)[O-])CC(=O)[O-])CC(=O)[O-].[Na+].[Na+].[Na+].[Na+]` [Comparative product 5-3, EDTA-4Na, reference compound] reads 90.
In the case of `CCCCCCCCCCCCCCCCCCOCCCCCCCCCCCCCCCCCC` [Inventive product 3-9, Distearyl ether], in assay [2], the “Concentration of ascorbic acid in the blade part” value (“Concentration of ascorbic acid” for short) amounted to 134%, the “Concentration of nitrate ion in the blade part” value (shortened to “Concentration of nitrate ion”) was found to be 79%, the “Dry weight of plant” value was determined as 120% and the Leaf-area amounted to 112%. The SPAD value in assay [2] came out at 38.1 point.
Regarding `CC(C)C[C@H](N)C(=O)O` [Inventive product 4-6, L-leucine], in assay [3], the “Concentration of ascorbic acid” value is reported as 113%, the “Concentration of nitrate ion” value came out at 85%, the “Dry weight of plant” value is 118% and the Leaf-area worked out at 110%. Besides, the SPAD value in assay [3] stood at 49.0 point.
The matching figures for `CCCCCCCCCCCCCCCCCCOCCCCCCCCCCCCCCCCCC` [Inventive product 4-9, Distearyl ether]: 120%, 73%, 116%, 111% and 49.5 point.
For the compound `CCCCCCCCCCCCCCCCCC(=O)O` [Inventive product 5-1, Stearic acid], the “Improved degree in reproduction” value in assay [1] came to 120.
`CCCCCCCCCCCCCCCC(=O)O` [Inventive product 5-2, Palmitic acid]: the “Improved degree in reproduction” value in assay [1] worked out at 110.
On to `O=S(=O)([O-])CCO.[Na+]` [Inventive product 5-3, Sodium isethionate], for which the “Improved degree in reproduction” value in assay [1] was 115.
Still for that read-out and setting: next, `N[C@@H](CCC(=O)[O-])C(=O)[O-].[Na+].[Na+]` [Inventive product 5-4, Sodium glutamate]: 105.
Turning to “Hexaglycerol monostearate [Inventive product 3-16]”, in assay [2], the “Concentration of ascorbic acid” value is 119%, the “Concentration of nitrate ion” value is recorded as 84%, the “Dry weight of plant” value is 115% and the Leaf-area is 108%. The compound also displayed an SPAD value in assay [2] of 36.8 point.
The matching figures for “POE(1) stearyl ether [Inventive product 3-11]”: 116%, 89%, 114%, 108% and 37 point.
Regarding “POE(1) stearyl ether [Inventive product 4-11]”, in assay [3], the “Concentration of ascorbic acid” value is recorded as 114%, the “Concentration of nitrate ion” value was found to be 86%, the “Dry weight of plant” value was 112% and the Leaf-area was 110%. Also, the SPAD value in assay [3] was 46.8 point.
As for “POE(6) sorbitan monolaurate [Comparative product 3-3]”, in assay [2], the “Concentration of ascorbic acid” value worked out at 101%, the “Concentration of nitrate ion” value worked out at 99%, the “Dry weight of plant” value is listed as 100% and the Leaf-area is recorded as 102%. This compound also showed an SPAD value in assay [2] of 35.0 point.
The like results for “POE(8) oleyl ether [Comparative product 3-2]” were, in that order, 102%, 98%, 101%, 103% and 35.0 point.
“POE(20) sorbitan monooleate [Comparative product 3-1]”: in assay [2], the “Concentration of ascorbic acid” value is reported as 100%, the “Concentration of nitrate ion” value amounted to 99%, the “Dry weight of plant” value is listed as 103% and the Leaf-area is listed as 102%. The compound also came in with an SPAD value in assay [2] of 35.1 point.
On to “POE(20) sorbitan monooleate [Comparative product 4-1, reference compound]”, for which, in assay [3], the “Concentration of ascorbic acid” value came out at 98%, the “Concentration of nitrate ion” value turned out to be 100%, the “Dry weight of plant” value came out at 101% and the Leaf-area is on record as 96%. The compound also returned an SPAD value in assay [3] of 43.5 point.
For the compound “POE(20) sorbitan tristearate [Comparative product 3-5]”, in assay [2], the “Concentration of ascorbic acid” value turned out to be 102%, the “Concentration of nitrate ion” value turned out to be 98%, the “Dry weight of plant” value was determined as 101% and the Leaf-area stood at 101%. The same compound registered an SPAD value in assay [2] of 35.1 point.
Consider “Sodium POE(3) lauryl ether sulfate [Comparative product 3-4]”, for which, in assay [2], the “Concentration of ascorbic acid” value is 101%, the “Concentration of nitrate ion” value was found to be 100%, the “Dry weight of plant” value was 100% and the Leaf-area was found to be 100%. Besides, the SPAD value in assay [2] stood at 34.9 point.
On to “Sodium POE(3) lauryl ether sulfate [Comparative product 4-2, reference compound]”, for which, in assay [3], the “Concentration of ascorbic acid” value was 95%, the “Concentration of nitrate ion” value is 101%, the “Dry weight of plant” value is listed as 98% and the Leaf-area is on record as 95%. The SPAD value in assay [3] came to 42.5 point.
As to Vitamin B12 [Inventive product 4-2], in assay [3], the “Concentration of ascorbic acid” value is 111%, the “Concentration of nitrate ion” value was 85%, the “Dry weight of plant” value stood at 115% and the Leaf-area came to 108%. For the same compound, in assay [3], the SPAD value stood at 45.9 point.

For the origin of these results see patent US6849576B2, “Plant-activating agent” (Kao Corporation, priority 2000, dated 2005).
